From PMC8151276, “An Integrated Approach toward NanoBRET Tracers for Analysis of GPCR Ligand Engagement” (Molecules, 2021)

How the values were obtained:
BRS3 = target: T1, BRS3 (Homo sapiens, UniProt P32247); experiment: NanoBRET screen HiBiT-BRS3 in HEK293; assay type: binding
T1 construct: purchased Promega (in-house HiBiT-GPCR construct library, NanoBRET)
T1 sequence (P32247 1-399): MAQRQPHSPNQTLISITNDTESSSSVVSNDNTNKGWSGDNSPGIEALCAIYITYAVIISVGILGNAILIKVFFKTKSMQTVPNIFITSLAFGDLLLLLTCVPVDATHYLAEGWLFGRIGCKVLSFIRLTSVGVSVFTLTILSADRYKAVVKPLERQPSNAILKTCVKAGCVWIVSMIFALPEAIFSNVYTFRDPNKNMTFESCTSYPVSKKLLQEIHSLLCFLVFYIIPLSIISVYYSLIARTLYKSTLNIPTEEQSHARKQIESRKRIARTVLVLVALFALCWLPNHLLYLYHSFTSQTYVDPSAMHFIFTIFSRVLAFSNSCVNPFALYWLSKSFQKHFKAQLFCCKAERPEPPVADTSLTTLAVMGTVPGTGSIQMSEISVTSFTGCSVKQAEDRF
Procedure: (§1) Each tracer candidate was screened across the entire library of HiBiT-GPCR constructs using NanoBRET as the detection modality. As depicted in Figure 4A, the specificity of interactions was evaluated through decrease in BRET due to competitive displacement of a bound tracer by excess parental compound. Each tracer was analyzed for binding to each HiBiT-GPCR fusion in the absence and in the presence of competing parental compound. Briefly, HEK293 cells were transfected with HiBiT-GPCR constructs diluted into promoterless DNA to reduce expression and maximize translocation to the cell surface. Each tracer candidate was then screened at concentrations of 1 μM and 0.1 μM across cells expressing these fusions. Cells were treated for 1.5 h with tracer either alone or in the presence of 20 μM competing parental compound (i.e., control). BRET was measured upon addition of purified LgBiT and subsequent complementation with HiBiT genetically fused to a GPCR. The specificity of interactions was assessed through a decrease in BRET signal due to competitive displacement of the bound tracer. To further gauge the robustness of these interactions, the fold response over the control (i.e., BRETtracer/BRETcontrol) was calculated. We chose a 1.5-fold response, which translates to ≥7-fold signal over noise as the minimal threshold required to score an interaction as positive. […]. Below we highlight the screening results obtained for our exemplary fluorescent tracers based on Clozapine, Amitriptyline and AZD1283.
(§2) HiBiT-GPCR DNA constructs were diluted in 10 mM Tris pH 8 to a final concentration of 0.01 μg/μL, arrayed in 96-well plates and stored at −20 °C. For transfection, HEK293 cells were suspended in Opti-MEM (without phenol red) supplemented with 2% fetal bovine serum (Seradigm) and 100 units/mL penicillin–streptomycin (Gibco) at a final concentration of 220,000 cells/mL and dispensed into white 96-well plates at 90 μL/well. Subsequent transfections and screens were carried using an Agilent Bravo Automated Liquid Handling Platform. First, the 96-well HiBiT DNA arrays were diluted 25-fold in Opti-MEM (without serum or phenol red) to a final concentration of 0.0004 μg/μL and 20 μL of the diluted DNAs were transferred into new 96-well plates. Next, promoterless carrier DNA (1 μg/μL) was diluted 25-fold (0.04 μg/μL) and then dispensed into the diluted arrays at 20 μL/well. Following brief mixing, Viafect transfection reagent (Promega) diluted 16-fold into Opti-MEM was dispensed into the plates at 40 μL/well. After mixing by pipetting, plates were incubated for 10 min on the pipetting station deck. The DNA-transfection reagent complexes were then added to plates containing cells. To facilitate the screen, 10 μL of DNA-transfection reagent complexes were added in duplicates to the top 4 and bottom 4 rows, resulting in two identical 48-well arrays per plate. Plates with transfected cells were incubated for 18–20 h at 37 °C/5% CO2. A screen of each tracer across the entire library using two different concentrations requires duplicate plates of transfected cells. Depending on the number of tracers being screened, transfections can be scaled up using the same ratios. The next day, for each tracer, four 20× screening solutions in tracer dilution buffer (Promega) were prepared: two duplicates at final concentration of 20 μM and two duplicates at a final concentration of 2 μM. A competing unmodified compound was added to one of each duplicate at a final concentration of 400 μM. The four resulting solutions were diluted 4-fold in Opti-MEM without serum or phenol red to generate 5× solutions (5 µM and 0.5 µM tracer +/− 100 μM competing compound). To screen the library, a BioTek MultiFlo FX liquid dispenser was used to dispense 22.5 µL of tracer solution to the top 4 rows and 22.5 µL tracer + competing compound solution to the 4 bottom rows. Plates were briefly mixed on an orbital shaker and incubated for 1.5 h at room temperature. […]

RXFP2 = target: T2, RXFP2 (Homo sapiens, UniProt Q8WXD0); experiment: NanoBRET screen HiBiT-RXFP2 in HEK293; assay type: binding
T2 construct: purchased Promega (in-house HiBiT-GPCR construct library, NanoBRET)
T2 sequence (Q8WXD0 whole entry): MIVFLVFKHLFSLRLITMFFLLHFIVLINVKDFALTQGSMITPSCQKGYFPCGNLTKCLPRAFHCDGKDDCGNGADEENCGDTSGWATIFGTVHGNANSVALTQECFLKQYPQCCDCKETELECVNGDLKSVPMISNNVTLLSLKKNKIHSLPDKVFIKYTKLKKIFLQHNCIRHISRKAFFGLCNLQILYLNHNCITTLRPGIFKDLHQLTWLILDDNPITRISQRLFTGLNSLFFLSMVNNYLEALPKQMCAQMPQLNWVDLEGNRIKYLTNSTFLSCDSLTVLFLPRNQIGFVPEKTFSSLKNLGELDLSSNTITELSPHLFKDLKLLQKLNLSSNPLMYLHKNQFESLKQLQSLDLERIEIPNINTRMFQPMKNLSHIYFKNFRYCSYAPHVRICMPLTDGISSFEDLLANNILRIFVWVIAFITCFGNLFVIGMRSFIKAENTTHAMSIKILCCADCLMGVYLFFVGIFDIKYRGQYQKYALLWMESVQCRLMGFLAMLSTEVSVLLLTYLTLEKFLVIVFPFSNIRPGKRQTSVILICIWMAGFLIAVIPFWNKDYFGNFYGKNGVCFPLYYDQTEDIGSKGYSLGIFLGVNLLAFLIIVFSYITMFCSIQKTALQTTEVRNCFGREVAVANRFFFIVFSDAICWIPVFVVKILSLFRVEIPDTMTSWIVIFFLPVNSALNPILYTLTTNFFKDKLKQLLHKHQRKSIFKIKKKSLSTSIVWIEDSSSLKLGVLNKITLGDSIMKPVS
Procedure: as §1, §2

| Structure (SMILES) | NanoBRET Fold Response (BRS3; BRS3, tracer 0.1μM) | NanoBRET Fold Response (BRS3; BRS3, tracer 1μM) | NanoBRET Fold Response (RXFP2; RXFP2, tracer 0.1μM) | NanoBRET Fold Response (RXFP2; RXFP2, tracer 1μM) | further results |
| --- | --- | --- | --- | --- | --- |
| COc1ccc2c(n1)c(CCNC(C)=O)cn2CCNC(=O)CCc1ccc2n1[B-](F)(F)[N+]1=C(c3ccc[nH]3)C=CC1=C2 [Azamelatonin-1-NB590] |  |  |  |  | NanoBRET Fold Response (BRS3; 0.1μM tracer): 0.95; NanoBRET Fold Response (BRS3; 1μM tracer): 0.95; NanoBRET Fold Response (RXFP2; 0.1μM tracer): 1.10; NanoBRET Fold Response (RXFP2; 1μM tracer): 1.34 |
| CC(C)N(CC[C@H](c1ccccc1)c1cc(CCNC(=O)c2ccc(CNC(=O)CCc3ccc4n3[B-](F)(F)[N+]3=C(c5ccc[nH]5)C=CC3=C4)cc2)ccc1O)C(C)C [Tolterodine-BZ-NB590] | 0.89 | 1.09 | 0.34 | 0.83 |  |
| O=C(CCc1ccc2n1[B-](F)(F)[N+]1=C(c3ccc[nH]3)C=CC1=C2)NCCOCCOCCNC(=O)OCCOCCN1CCN(C2=Nc3ccccc3Sc3ccccc32)CC1 [Quetiapine-a-2-NB590] | 0.96 | 0.98 | 1.31 | 1.01 |  |
| Cc1cc2c(s1)Nc1ccccc1N=C2N1CCN(CCCNC(=O)CCOCCOCCOCCOCCNC(=O)CCc2ccc3n2[B-](F)(F)[N+]2=C(c4ccc[nH]4)C=CC2=C3)CC1 [Olanzapine-a-2-NB590] | 1.01 | 1.05 | 0.27 | 0.46 |  |
| O=C(CCc1ccc2n1[B-](F)(F)[N+]1=C(c3ccc[nH]3)C=CC1=C2)NCc1ccc(C(=O)NCCOCCOCCNCC(O)COc2cccc3ccccc23)cc1 (stereo not shown) [Propranolol-3-NB590] |  |  |  |  | NanoBRET Fold Response (BRS3; BRS3, 0.1μM): 1.03; NanoBRET Fold Response (BRS3; BRS3, 1μM): 1.08; NanoBRET Fold Response (RXFP2; RXFP2, 0.1μM): 0.27; NanoBRET Fold Response (RXFP2; RXFP2, 1μM): 0.78 |
| CN1CCN(C2=Nc3cc(Cl)ccc3N(CC(=O)NCCOCCOCCOCCOCCNC(=O)CCc3ccc4n3[B-](F)(F)[N+]3=C(c5ccc[nH]5)C=CC3=C4)c3ccccc32)CC1 [Clozapine-c-2-NB590] |  |  |  |  | NanoBRET Fold Response (BRS3; BRS3, 0.1μM tracer): 0.93; NanoBRET Fold Response (BRS3; BRS3, 1μM tracer): 1.07; NanoBRET Fold Response (RXFP2; RXFP2, 0.1μM tracer): 0.62; NanoBRET Fold Response (RXFP2; RXFP2, 1μM tracer): 1.17 |
| O=C(CCc1ccc2n1[B-](F)(F)[N+]1=C(c3ccc[nH]3)C=CC1=C2)NCc1ccc(C(=O)NCCOCCC(=O)N[C@@H]2CC[C@@]3(O)[C@H]4Cc5ccc(O)c6c5[C@@]3(CCN4CC3CC3)[C@H]2O6)cc1 [Naltrexone-3-NB590] | 1.05 | 0.94 | 1.31 | 0.72 |  |
| CC(C)N(CC[C@H](c1ccccc1)c1cc(CCNC(=O)CCOCCOCCOCCOCCNC(=O)CCc2ccc3n2[B-](F)(F)[N+]2=C(c4ccc[nH]4)C=CC2=C3)ccc1O)C(C)C [Tolterodine-2-NB590] | 1.02 | 1.04 | 1.11 | 1.30 |  |
| Cc1nc2n(c(=O)c1CCN1CCC(c3noc4cc(F)ccc34)CC1)CCCC2OC(=O)NCCOCCOCCOCCOCCNC(=O)CCc1ccc2n1[B-](F)(F)[N+]1=C(c3ccc[nH]3)C=CC1=C2 (stereo not shown) [Risperidone-2-NB590] | 0.95 | 0.98 | 1.20 |  |  |
| O=C(CCOCCOCCOCCOCCNC(=O)CCc1ccc2n1[B-](F)(F)[N+]1=C(c3ccc[nH]3)C=CC1=C2)NCCCN1CCN(C2=Nc3cc(Cl)ccc3Nc3ccccc32)CC1 [Clozapine-a-2-NB590] |  |  |  |  | NanoBRET Fold Response (BRS3; BRS3, 0.1μM tracer): 1.09; NanoBRET Fold Response (BRS3; BRS3, 1μM tracer): 1.15; NanoBRET Fold Response (RXFP2; RXFP2, 0.1μM tracer): 1.23; NanoBRET Fold Response (RXFP2; RXFP2, 1μM tracer): 1.14 |
| COc1ccc2[nH]c(-c3ccc(CNC(=O)CCOCCOCCOCCOCCNC(=O)CCc4ccc5n4[B-](F)(F)[N+]4=C(c6ccc[nH]6)C=CC4=C5)cc3)c(CCNC(C)=O)c2n1 [AzomelatoninICO9-2-NB590] |  |  |  |  | NanoBRET Fold Response (BRS3; 0.1μM tracer): 0.86; NanoBRET Fold Response (BRS3; 1μM tracer): 0.91; NanoBRET Fold Response (RXFP2; 0.1μM tracer): 1.23; NanoBRET Fold Response (RXFP2; 1μM tracer): 0.59 |
| CN1CCN(C2=Nc3cc(Cl)ccc3Nc3ccc(CNC(=O)CCOCCOCCOCCOCCNC(=O)CCc4ccc5n4[B-](F)(F)[N+]4=C(c6ccc[nH]6)C=CC4=C5)cc32)CC1 [Clozapine-b-2-NB590] |  |  |  |  | NanoBRET Fold Response (BRS3; BRS3, 0.1μM tracer): 1.01; NanoBRET Fold Response (BRS3; BRS3, 1μM tracer): 1.02; NanoBRET Fold Response (RXFP2; RXFP2, 0.1μM tracer): 1.04 |
| COc1ccccc1N1CCN(CCCCN2C(=O)c3ccc(CNC(=O)CCOCCNC(=O)c4ccc(CNC(=O)CCc5ccc6n5[B-](F)(F)[N+]5=C(c7ccc[nH]7)C=CC5=C6)cc4)cc3C2=O)CC1 [NAN-190-3-NB590] | 0.95 | 1.02 | 0.63 | 0.89 |  |
| N#CN=C(NCCCOc1cccc(CN2CCCCC2)c1)NCCNC(=O)CCOCCOCCOCCOCCNC(=O)CCc1ccc2n1[B-](F)(F)[N+]1=C(c3ccc[nH]3)C=CC1=C2 [Aminopotentidine-2-NB590] | 1.02 | 1.00 | 0.83 | 0.83 |  |
| CN(C)CCC=C1c2ccccc2CCc2ccc(C(=O)NCCNC(=O)CCOCCOCCOCCOCCNC(=O)CCc3ccc4n3[B-](F)(F)[N+]3=C(c5ccc[nH]5)C=CC3=C4)cc21 [Amitriptyline-b-2-NB590] |  |  |  |  | NanoBRET Fold Response (BRS3; tracer at 0.1μM): 0.92; NanoBRET Fold Response (BRS3; tracer at 1μM, listed as amitriptyline-b-2-NB590): 1.07; NanoBRET Fold Response (RXFP2; tracer at 0.1μM): 1.09; NanoBRET Fold Response (RXFP2; tracer at 1μM): 1.34 |
| COc1ccccc1N1CCN(CCCCN2C(=O)c3ccc(CNC(=O)CCOCCOCCOCCOCCNC(=O)CCc4ccc5n4[B-](F)(F)[N+]4=C(c6ccc[nH]6)C=CC4=C5)cc3C2=O)CC1 [NAN-190-2-NB590] | 1.04 | 0.97 | 0.78 | 1.17 |  |
| CN(C)CCC=C1c2ccccc2CCc2ccc(C(=O)NCCNC(=O)CCOCCOCCOCCOCCNC(=O)CCc3ccc4n3[B-](F)(F)[N+]3=C(c5ccc[nH]5)C=CC3=C4)cc21 [Amitriptyline-a-2-NB590] |  |  |  |  | NanoBRET Fold Response (BRS3; tracer at 0.1μM): 1.02; NanoBRET Fold Response (BRS3; tracer at 1μM): 0.99 |
